The record followed here is article PMC6542369 (Bioorganic & medicinal chemistry letters, 2017).

In assay [1] the target is T1, hM4 (Homo sapiens, UniProt P08173).
T1 sequence (P08173 1-479): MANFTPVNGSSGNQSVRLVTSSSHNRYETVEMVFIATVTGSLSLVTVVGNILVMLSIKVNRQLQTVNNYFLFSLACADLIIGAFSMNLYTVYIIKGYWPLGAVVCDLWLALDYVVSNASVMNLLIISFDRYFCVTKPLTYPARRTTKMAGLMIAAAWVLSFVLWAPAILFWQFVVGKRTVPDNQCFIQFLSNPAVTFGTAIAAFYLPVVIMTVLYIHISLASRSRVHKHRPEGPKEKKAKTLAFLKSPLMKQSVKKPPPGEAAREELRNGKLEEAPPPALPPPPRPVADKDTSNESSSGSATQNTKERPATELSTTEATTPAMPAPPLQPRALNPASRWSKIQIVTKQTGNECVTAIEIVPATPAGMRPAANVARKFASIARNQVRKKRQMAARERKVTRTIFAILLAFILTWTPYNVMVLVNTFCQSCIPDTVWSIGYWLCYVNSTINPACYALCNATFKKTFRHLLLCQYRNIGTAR
It counts as cell-based. The following applies: for loss of potency (fold): hM4 potency relative to 10a; for hM4 activity: replacement of the fluorine with other halogens.

The target in assay [2] is T2, hM2 (Homo sapiens, UniProt P08172).
T2 sequence (P08172 1-466): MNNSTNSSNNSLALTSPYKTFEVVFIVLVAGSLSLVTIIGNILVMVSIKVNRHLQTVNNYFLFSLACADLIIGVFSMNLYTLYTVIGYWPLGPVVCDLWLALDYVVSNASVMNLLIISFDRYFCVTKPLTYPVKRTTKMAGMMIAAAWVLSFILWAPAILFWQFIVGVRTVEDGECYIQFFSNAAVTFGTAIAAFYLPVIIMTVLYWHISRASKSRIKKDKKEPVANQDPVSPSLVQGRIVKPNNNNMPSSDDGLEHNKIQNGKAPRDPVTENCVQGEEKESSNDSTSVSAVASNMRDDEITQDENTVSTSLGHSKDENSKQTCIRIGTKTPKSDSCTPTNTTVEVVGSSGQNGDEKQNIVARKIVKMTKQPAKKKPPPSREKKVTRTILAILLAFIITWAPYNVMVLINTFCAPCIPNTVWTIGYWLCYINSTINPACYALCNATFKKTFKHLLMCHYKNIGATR
The experiment in a line: mAChR subtype selectivity / counter screen, hM2. In kind it is cell-based.

For `COc1cccc(C2CN(C(=O)c3sc4nnc(C)c(C)c4c3N)C2)c1` [Compound 10h], the “loss of potency (fold)” value in assay [1] was > 100 fold.
As for `COc1ccc(C2CN(C(=O)c3sc4nnc(C)c(C)c4c3N)C2)cc1` [Compound 10i], the “loss of potency (fold)” value in assay [1] is on record as ~ 3.5 fold.
For the compound `Cc1nnc2sc(C(=O)N3CC(c4ccc(F)cc4)C3)c(N)c2c1C` [Compound 10l], in assay [2], the “activity at hM2” value is “inactive”.
As for `Cc1nnc2sc(C(=O)N3CC(c4ccc(Cl)cc4)C3)c(N)c2c1C` [Compound 10m], the hM4 activity result in assay [1] is “complete loss of hM4 activity”.
Same read-out and setting: next, `Cc1nnc2sc(C(=O)N3CC(c4ccc(Br)cc4)C3)c(N)c2c1C` [Compound 10n]: “complete loss of hM4 activity”.
In the case of `Cc1nnc2sc(C(=O)N3CC(O)(c4ccccc4)C3)c(N)c2c1C` [Compound 11a], in assay [1], the “loss of potency (fold)” value is ~ 10 fold.
Consider `COC1(c2cccc(F)c2)CN(C(=O)c2sc3nnc(C)c(C)c3c2N)C1` [Compound 11b], for which, in assay [1], the “loss of potency (fold)” value is reported as ~ 6 fold.
